The compounds below were run against Dual specificity tyrosine-phosphorylation-regulated kinase 1A (Homo sapiens, UniProt Q13627) (assay: HotSpot Technology Assay). Conditions: pH 7.5; 25 °C.

IC50 | Structure (SMILES)
500 nM | COc1ccc(Nc2ncnc3ccc4nc(C(=N)N(C)C)sc4c23)cc1 [US9446044, 28]
500 nM | NC(=O)c1nc2ccc3ncnc(Nc4ccc5c(c4)OCO5)c3c2s1 [US9446044, 39]
500 nM | COC(=O)c1nc2ccc3ncnc(Nc4ccc5c(c4)OCO5)c3c2s1 [US9446044, 84]
